Read-outs that look alike come from different tables or passages of the source.
Legend:
[1] = Acetaminophen pharmacokinetics after 1 g intravenous infusion (serum LC-MS/MS, noncompartmental analysis); assay type: in vivo, human
Method: Serum samples were collected every 30 min starting from the administration until 6 h after the treatment was initiated and immediately frozen at −80 °C until analysis. […] The protocol also included the collection of whole blood samples for genetic analyses.
The samples were mixed for 15 s and kept on ice for 20 min. Then, the samples were centrifuged for 10 min at 3000× g, at 4 °C. The supernatant (750 μL) was evaporated under a nitrogen stream. Then, the samples were resuspended in 40 μL of a mixture containing water ([…]), methanol (2.5%), and formic acid (0.1%). […] The column temperature was set at 20 °C. The flow rate was 0.2 mL/min, and the mobile phase consisted of the following gradient: Mobile phase A: 0.1% formic acid in water; Mobile phase B: 0.1 formic acid in methanol. The elution was started with a proportion of 97.5% A:2.5% B. A linear gradient increase from 2.5% to 65%B over 0.6 min was used, and then, the mobile phase reversed to initial conditions. The mass spectrometer was operated in positive electrospray ionization using multiple reaction monitoring (MRM). The source was set at 500 °C and 5.5 kV. […] Pharmacokinetic analyses were carried out by use of WinNonlin® V5.3 (Pharsight Corporation, St. Louis, MO, USA). The pharmacokinetic model chosen to calculate all parameters was noncompartmental with intravenous infusion. Untransformed data were used for all analyses.

[2] = Adverse drug events attributable to acetaminophen in the study participants; assay type: in vivo, human; settings: single 1 g iv dose, ICU patients
[3] = cited from earlier work
[4] = UGT1A6*2/*2 diplotype vs UGT1A6*1/*1
[5] = UGT1A6*2/*4 diplotype vs UGT1A6*1/*1
[6] = concomitant drug therapy: Other (Inhibitors + Inducers) (n = 1), single patient, 1 g iv
[7] = human, serum, concomitant drug therapy: Other (Inhibitors + Inducers) (n = 1), single patient, 1 g iv

effect of UGT1A9 genotypes (UGT1A9*1/*3, *3/*3) on pharmacokinetics ([1]; 65 individuals without UGT1A6 variants, Supplementary Table S5): No major differences | pharmacokinetics in individuals who required on-demand opiates vs those who did not ([1]; Supplementary Table S6): No significant differences | increase in drug exposure (AUMC) [1, 4]: 66% | increase in t1/2 values [1, 4]: 38% | increase in drug exposure (AUMC) [1, 5]: 76% | increase in t1/2 values [1, 5]: 31% | K10 [1, 6]: 0.45; - 1/h | V (volume of distribution) [1, 6]: 299.16; - mg/(ug/mL) | Vss [1, 6]: 299.16; - mg/(ug/mL) | increase in t1/2 values ([1]; homozygous or double heterozygous for variant UGT1A6 alleles vs UGT1A6*1/*1): 22.5% | half-life ([1]; human, serum, intravenous, 1 g, whole study group, from less than 0.5 h up to more than 3.5 h, read-out: half-life (t1/2) values, range across individuals): 30 to 210 min | AUC(0-inf) [1, 7]: 7440 ng·h/mL | AUC(0-t) [1, 7]: 6660 ng·h/mL | C0 [1, 7]: 3340 ng/mL | MRT [1, 7]: 2.23 h | half-life ([1]; human, serum, concomitant drug therapy: Other (Inhibitors + Inducers) (n = 1), single patient, 1 g iv, read-out: t1/2 (converted)): 92.4 min
SMILES: CC(=O)Nc1ccc(O)cc1 [Acetaminophen]
adverse drug events attributable to acetaminophen [2]: None of the participants developed adverse drug events | fraction of acetaminophen metabolized in vivo [3]: about 90% | acetaminophen glucuronides as share of the metabolites recovered in urine ([3]; urine): about half | acetaminophen glucuronides as share of the urine metabolites ([3]; urine): more than 50%
